Laboratory results: patent publication US20210386743A1, “USE OF PDE9 INHIBITORS FOR TREATMENT” (The Johns Hopkins University, priority 2018, published 2021)
Entries after “also recorded” stand apart in the source; their conditions may differ. Like-named read-outs stand apart in the source and are kept apart here.

Key:
[1] = tested on: OVX+HFD+TAC female mice (C57BL/6N); assay: Echocardiography of cardiac function and structure in OVX+HFD+TAC female mice; type: in vivo, mouse; settings: OVX+HFD+TAC females, vs vehicle; for left ventricular hypertrophy (LV Mass) / ejection fraction (EF) / fractional shortening (FS): serial echo, drug started 1 week after TAC; for left ventricular hypertrophy (LV Mass): oral gavage 20 mg/kg twice daily, 20 mg/kg
Experimental: (§1) All animals were fed a high fat diet (HFD) consisting of 60% kcal derived from fat was fed to both male and female C57BL6N mice for 3 months. Mice were divided into two groups: 1) Controls with intact ovaries; 2) Ovariectomized (Ovx) mice. Mice were assigned to receive trans-aortic constriction (TAC) or sham surgery after 3 months of HFD, and further randomized to placebo vehicle and PDE9-I (PDE9 inhibitor oral gavage 20 mg/kg twice daily) (FIG. 1). Comparison of Group 1 and 2 tests the efficacy of PDE9-I to ameliorate and/or reverse HFD and pressure-overload pathophysiology independent of sex hormone status.
(§2) Changes in cardiac function and structure were measured using echocardiogram, histopathology and markers of cardiac stress (Nppa Gene expression by RT-qPCR). For qPCR, RNA is isolated from left ventricular myocardium (Trizol Reagent, Invitrogen), reverse transcribed to cDNA (High Capacity RNA-to-cDNA Kit, Applied Biosystems, Life Technologies), and undergoes PCR amplification using TaqMan probes for atrial natriuretic peptide (Nppa) (mouse #Mm01255747_g1, rat #Rn00664637_g1). The threshold cycle value was determined using the crossing point method, and samples normalized to the GAPDH for each run. Echocardiography was performed in conscious mice using serial M-mode transthoracic echocardiography (VisualSonics Vevo 2100, 18-38 MHz transducer; SanoSite Inc.). Images were obtained and analyzed by an individual blinded to the animal condition.
(§3) Female mice (C57BL/6N) were placed on a 60% fat diet starting at age 5-weeks. Two weeks later, there were randomized to receive bilateral oophorectomy or sham surgery. Cardiac imaging for ventricular function and morphometry was determined 2 months later. Between 8-11 weeks after ovariectomy, the mice underwent a second surgical procedure introducing a mild aortic constriction (TAC) in the transverse aorta to increase pressure load on the heart. The purpose of the TAC procedure was to stimulate the heart to synthesize natriuretic peptide, which is important for the generation of cyclic GMP which PDE9 regulates. Serial echocardiograms were obtained, and starting 1 week after TAC, mice were further randomized to receive vehicle control or a PDE9 inhibitor (PF-7943). Intact mouse metabolic studies, fat/lean mass determinations, and heart function were assessed. At terminal study, tissues were harvested for molecular signaling.

[2] = tested on: C57BL6/N female mice with intact ovaries, HFD+TAC; assay: Whole body metabolism (indirect calorimetry) in HFD+TAC female mice with intact ovaries; type: in vivo, mouse; settings: females with intact ovaries, HFD + pressure overload
Experimental: as §1
(§4) Whole body metabolism: Indirect calorimetry was used to assess metabolic parameters in live animals using the OxyMAX Comprehensive Lab Animal Monitoring System (Columbus Instruments, Columbus Ohio). Basic metabolic rate (VO2 consumption), VCO2 release and energy expenditure (EE) were measured by indirect calorimetry in high-fat-fed OVX mice groups treated with (Drug) and without PDE9 inhibitor (Control). Respiratory exchange ratio (RER) was calculated from VCO2 release-to-VO2 consumption ratio (VCO2 release/VO2 consumption). CLAMS cabinet was used to measure oxygen consumption rate at 22° C. (VO2), CO2 emission, respiratory exchange ratio, heat production, food consumption (g consumed per day), and total and ambulatory activity per day.
(§5) In a second experiment, we examined the impact of PDE9 inhibition on female mice (C57BL6/N) subjected to HFD+TAC, but without ovariectomy and thus had normal estrogen levels.

[3] = tested on: female mice, high fat diet induced obesity plus mild pressure stress; assay: Cardiac disease in obese (HFD) female mice with mild pressure stress on the heart; type: in vivo, mouse; settings: females; high fat diet induced obesity and metabolic syndrome + mild pressure stress on the heart
Excerpt: Our laboratory has studied the impact of PDE9 inhibition on the heart, in particular in male mice subjected to pressure overload stress to induced cardiac hypertrophy, dysfunction, and pathological fibrosis. Over the past 1.5 years, we have turned to females, and in particular added the impact of high fat diet induced obesity and metabolic syndrome. This is then combined with a mild pressure stress on the heart to stimulate production of natriuretic peptides and some hypertrophy of the heart muscle. […] However, there was minimal impact on peripheral body weight, metabolism, or fat mass in these studies.

male HFD+TAC mice [4] = assay: Whole body metabolism (indirect calorimetry) in male HFD+TAC mice; type: in vivo, mouse
Experimental: as §1, §4
(§6) In a third experiment, we exposed male mice of a similar starting age (5 weeks) to the same HFD protocol, and then same TAC protocol. As before, mice were randomized to either vehicle control or active PDE9-inhibitor starting 1 week after the TAC procedure. FIG. 11.

[5] = tested on: OVX+HFD+TAC female mice (C57BL/6N); assay: Body weight and body composition (EchoMRI) in OVX+HFD+TAC female mice; type: in vivo, mouse; settings: OVX+HFD+TAC females
Experimental: as §1
(§7) Body composition: total fat mass, lean mass, and water content was determined by quantitative nuclear magnetic resonance (Echo-MRI®). In brief, after 20 weeks on the HFD, total body fat and lean body mass were assessed non-invasively by EchoMRI instrument. The analyzer delivers precise body composition measurements of fat, lean, free water, and total water masses in live animals weighing up to 100 grams. Conscious mice were placed in a constraint tube that was then inserted into the EchoMRI for a period of approximately 30 s and these measurements obtained.
as §3
After 20 weeks on the HFD+ 8 wks mTAC, total body fat and lean body mass were assessed non-invasively by EchoMRI.

[6] = tested on: OVX+HFD+TAC female mice (C57BL/6N); assay: Whole body metabolism by indirect calorimetry (CLAMS metabolic cage) in OVX+HFD+TAC female mice; type: in vivo, mouse; settings: OVX+HFD+TAC females, vs vehicle; for oxygen consumption (VO2): normalized to body mass
Experimental: as §1, §4, §3
RER is calculated from VCO2/VO2 ratio. […] Even if fat mass is assumed to contribute only 15% of total metabolic activity relative to lean mass, these differences remain significant (data not shown). […] P values are for unpaired t-tests between groups.

male HFD+TAC mice [7] = assay: Body weight and body composition in male HFD+TAC mice; type: in vivo, mouse; settings: listed as PDE9-inhibitor
Experimental: as §1, §7
In a third experiment, we exposed male mice of a similar starting age (5 weeks) to the same HFD protocol, and then same TAC protocol. […]

[8] = tested on: C57BL6/N female mice with intact ovaries, HFD+TAC; assay: Body weight and body composition in HFD+TAC female mice with intact ovaries; type: in vivo, mouse; settings: females with intact ovaries, vs vehicle
Experimental: as §1, §7, §5

[9] = tested on: OVX+HFD+TAC female mice (C57BL/6N); assay: Fasting blood markers of metabolic syndrome and liver histology in OVX+HFD+TAC female mice; type: in vivo, mouse; settings: for hepatic fat accumulation (liver histology): OVX females on HFD, vs no additional therapy; for fasting blood glucose / fasting blood total cholesterol / fasting total blood triglycerides: OVX+HFD+TAC females, end of study
Experimental: as §1, §3
Multiple biomarkers of metabolic syndrome and fat accumulation in the liver were improved in OVX+HFD+TAC female mice by PDE9 inhibition (FIG. 8). Data are shown at end-of study for fasting blood glucose, cholesterol, triglycerides, and histology of the liver.

male HFD+TAC mice [10] = assay: Cardiac remodeling (echocardiography, Nppa RT-qPCR) in obese male HFD+TAC mice; type: in vivo, mouse; settings: vs vehicle; for natriuretic peptide (Nppa) gene expression in myocardium: RT-qPCR; for cardiac hypertrophy (LV mass): drug started 1 week after TAC
Experimental: as §1, §2, §6

[11] = tested on: female mice, models of heart disease; settings: cited from earlier work
[12] = end of study, listed as PDE9 inhibitor

## C[C@@H]1CN(Cc2ncccn2)C[C@H]1c1nc2c(cnn2C2CCOCC2)c(=O)[nH]1 [PF 04447943]
[1]; end of study
  cardiac output: restoration towards normal control values
  ejection fraction: restoration towards normal control values
  ventricular end-diastolic volume (Volume, d): restoration towards normal control values
  ventricular end-systolic volume (Volume, s): restoration towards normal control values
[1]; [12]
  early to late atrial (E/A) filling: restored; also recorded: restoration towards normal control values
  isovolumic ventricular relaxation time (IVRT): restored; also recorded: restoration towards normal control values
[1]
  left ventricular hypertrophy (LV Mass): reduced left ventricular hypertrophy
  ejection fraction (EF): greater
  fractional shortening (FS): greater fractional shortening
[1]; listed as PDE9 inhibitor
  left ventricular hypertrophy (LV Mass): reduced LV mass
  ejection fraction (EF): improved FS and EF
  fractional shortening (FS): improved FS
[2]
  calculated energy expenditure: do not show any changes
[2]; listed as PDE9-I
  CO2 production: no difference
  overall oxygen consumption: no difference
  respiratory exchange ratio: no difference
[2]; listed as PDE9i
  CO2 production: do not show any changes
  overall oxygen consumption: do not show any changes
  respiratory exchange ratio: do not show any changes
[3]
  cardiac disease: can indeed ameliorate cardiac disease
Male HFD+TAC mice [4]
  CO2 generation: did not display consistent changes
  RER: did not display consistent changes
Male HFD+TAC mice [4]; listed as PDE9-inhibitor
  energy expenditure (heat generation): did not demonstrate increases; also recorded: did not display consistent changes
  oxygen consumption (metabolic rate): did not demonstrate increases; also recorded: did not display consistent changes
[5]
  relative weight reduction compared to OVX mice on normal diet: ~30%
[5]; EchoMRI
  absolute lean body mass: no change in absolute lean body mass
  percent body fat: reduced percent body fat
  percent lean body mass: increased percent lean body mass
[5]; EchoMRI, 20 weeks HFD + 8 wks mTAC
  fat weight: significant decline in fat weight
[5]; PDE9 inhibitor treatment
  body weight decline: ~20%
[6]; listed as PDE9I
  oxygen consumption (VO2): increases total oxygen consumption normalized to body mass
[6]; listed as PDE9 inhibitor
  oxygen consumption (VO2): increases in oxygen consumption
[6]; normalized to total body mass
  carbon dioxide generation (VCO2): increases
[6]
  calculated energy expenditure (heat): increased
  respiratory exchange ratio (RER): not significantly altered
Male HFD+TAC mice [7]
  total body weight / body mass: only borderline altered; also recorded: trend towards reduced body weight
  total fat mass / body fat: significant reduction in total fat mass; also recorded: decline in body fat
[8]; listed as PDE0-I
  fat mass: no significant change
  lean mass: no significant change
  percent fat mass: no significant change
  percent lean mass: no significant change
  total body weight: no significant change
[8]; listed as PDE9 inhibitor
  fat mass: did not have any alteration
  lean mass: did not have any alteration
  percent fat mass: did not have any alteration
  percent lean mass: did not have any alteration
  total body weight: did not have any alteration
[9]; listed as PDE9-I
  hepatic fat accumulation (liver histology): markedly reduced
  fasting blood glucose: reduced
  fasting blood total cholesterol: reduced
  fasting total blood triglycerides: reduced
[9]; listed as PDE9 inhibitor
  hepatic fat accumulation (liver histology): marked reduction of fat accumulation in the liver
  fasting blood glucose: reduced towards normal control levels
  fasting blood total cholesterol: reduced towards normal control levels
  fasting total blood triglycerides: reduced towards normal control levels
Male HFD+TAC mice [10]; listed as PDE9-I
  natriuretic peptide (Nppa) gene expression in myocardium: reduced
Male HFD+TAC mice [10]; listed as PDE9-inhibitor
  natriuretic peptide (Nppa) gene expression in myocardium: reduced by active therapy
  cardiac hypertrophy (LV mass): reduced left heart mass
  ejection fraction: increases in both fractional shortening and ejection fraction
  fractional shortening: increases in both fractional shortening and ejection fraction
Male HFD+TAC mice [10]; listed as PDE9 inhibitor
  cardiac hypertrophy (LV mass): significantly lowers cardiac hypertrophy
  ejection fraction: improves cardiac function
  fractional shortening: improves cardiac function

## CCCc1nn(C)c2c(=O)[nH]c(-c3cc(S(=O)(=O)N4CCN(C)CC4)ccc3OCC)nc12 [sildenafil]
[11]; female mice with ovaries, several models of heart disease
  treatment of heart disease: successfully treated
[11]; female mice, ovaries first removed
  treatment of heart disease: totally ineffective
[11]; female mice, ovaries removed, exogenous estrogen replacement
  treatment of heart disease: rescued
